Results taken from patent US10106558B2, “Azolobenzazine compounds, compositions comprising these compounds and their use for controlling invertebrate pests” (BASF SE, priority 2015, dated 2018).

Columns and labels:
Type in all cases: in vivo
[1] = test system: yellow fever mosquito (Aedes aegypti); assay: whole plant or invertebrate; settings: 48 h, larval mortality visually assessed after 2 days, read-out: mortality in comparison with untreated controls
Method in brief: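 Freshly hatched larvae (5-15 per well) held in 200 μl tap water; compounds formulated in 25% DMSO/water and 2.5 μl sprayed at several concentrations, two replicates. Plates kept 2 days at 28 °C, 80% RH, then larval mortality scored visually.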

[2] = test system: green peach aphid (Myzus persicae) (mixed life stages); assay: Action on green peach aphid, liquid artificial diet under artificial membrane; settings: 72 h, 800 ppm, adult aphids on treated aphid diet, 3 days, read-out: mortality in comparison with untreated controls
Excerpt: Example B8: Action on Green Peach Aphid (Myzus persicae) (Mixed Life Stages)
For evaluating control of green peach aphid (Myzus persicae) through systemic means the test unit consisted of 96-well-microtiter plates containing liquid artificial diet under an artificial membrane.
The compounds were formulated using a solution containing 75% v/v water and 25% v/v DMSO. Different concentrations of formulated compounds were pipetted into the aphid diet, using a custom built pipetter, at two replications.
After application, 5-8 adult aphids were placed on the artificial membrane inside the microtiter plate wells. The aphids were then allowed to suck on the treated aphid diet and incubated at about 23±1° C. and about 50±5% relative humidity for 3 days. Aphid mortality and fecundity was then visually assessed.

[3] = test system: Silverleaf Whitefly (Bemisia argentifolii) (Adults); assay: Action on silverleaf whitefly adults, sprayed cotton plants; settings: 72 h, 3 days after treatment, read-out: mortality in comparison with untreated controls
Method in brief: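 Compounds diluted from cyclohexanone stocks into 50% acetone/water with 0.01% nonionic surfactant and electrostatically sprayed onto cotyledon-stage cotton. Dried plants were infested with 10–12 adults (3–5 days old), held ~25 °C, 20–40% RH for 3 days; mortality scored at day 3 vs untreated plants.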

Cc1ccc(C(C)C)c(N2C(=O)CS/C2=N\N=C\c2ccc3c(ccc4c3ncn4-c3ccc(OC(F)(F)F)cc3)n2)c1 [Compound C-6, (2Z)-3-(2-isopropyl-5-methyl-phenyl)-2-[(E)-[3-[4-(trifluoromethoxy)phenyl]imidazo[4,5-f]quinolin-7-yl]methylenehydrazono]thiazolidin-4-one]
≥ 75%: mortality at 800 ppm [1] | mortality at 800 ppm [2] | mortality at 500 ppm [3]
